What was measured:
[1] = molecular target: T1, Kinesin-like protein KIF11 (Homo sapiens, UniProt P52732); assay: Inhibition of human recombinant C-terminal His6-tagged KSP ATPase activity after 1 hr by malachite green assay
T1 sequence (P52732 whole entry): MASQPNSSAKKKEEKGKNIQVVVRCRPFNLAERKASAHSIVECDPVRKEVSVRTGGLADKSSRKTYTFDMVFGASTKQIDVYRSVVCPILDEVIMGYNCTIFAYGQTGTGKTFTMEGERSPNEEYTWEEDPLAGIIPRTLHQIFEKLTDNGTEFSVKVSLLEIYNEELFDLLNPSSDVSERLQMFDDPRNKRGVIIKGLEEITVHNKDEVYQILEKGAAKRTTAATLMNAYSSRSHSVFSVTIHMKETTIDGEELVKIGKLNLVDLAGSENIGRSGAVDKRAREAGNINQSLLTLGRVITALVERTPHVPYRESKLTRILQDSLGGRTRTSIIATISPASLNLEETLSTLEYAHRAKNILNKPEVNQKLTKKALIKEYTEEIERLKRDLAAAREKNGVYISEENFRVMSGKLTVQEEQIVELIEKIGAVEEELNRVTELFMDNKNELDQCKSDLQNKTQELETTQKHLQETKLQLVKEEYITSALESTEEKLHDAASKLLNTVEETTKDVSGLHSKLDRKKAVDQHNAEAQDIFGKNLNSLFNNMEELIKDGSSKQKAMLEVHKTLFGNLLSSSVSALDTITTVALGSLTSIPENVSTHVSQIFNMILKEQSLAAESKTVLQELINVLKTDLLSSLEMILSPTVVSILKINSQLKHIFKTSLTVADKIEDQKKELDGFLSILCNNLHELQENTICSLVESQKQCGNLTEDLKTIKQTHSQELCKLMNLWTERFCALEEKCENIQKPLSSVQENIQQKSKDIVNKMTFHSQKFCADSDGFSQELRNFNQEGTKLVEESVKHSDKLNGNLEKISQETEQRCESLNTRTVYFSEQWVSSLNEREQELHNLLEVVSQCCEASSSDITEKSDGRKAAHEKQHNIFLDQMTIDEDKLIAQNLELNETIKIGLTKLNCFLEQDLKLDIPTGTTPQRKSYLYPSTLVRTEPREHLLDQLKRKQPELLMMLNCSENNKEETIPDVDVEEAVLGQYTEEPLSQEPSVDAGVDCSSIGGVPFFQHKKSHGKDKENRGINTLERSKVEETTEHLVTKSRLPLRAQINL

[2] = tested on: COLO 205; assay: Anticancer activity against human COLO205 cells after 72 hrs by MTS/PMS assay; format: functional, cell-based

Row | Compound | IC50 [1] | IC50 ([2]; Homo sapiens, COLO 205, 72 h) | IC50 ([2]; colo 205)
1 | CCC(c1nc2ccsc2c(=O)n1Cc1ccccc1)N(CCCN)C(=O)c1ccno1 (stereo not drawn) | 1390 nM | – | –
2 | CCC(c1nc2ccsc2c(=O)n1Cc1ccccc1)N(CCCN)C(=O)C1COc2ccccc2O1 (stereo not drawn) | 2310 nM | – | –
3 | CCC(c1nc2snc(C)c2c(=O)n1Cc1ccccc1)N(CCCN)C(=O)c1ccc(C)c(F)c1 (stereo not drawn) | – | 12 nM | –
4 | CCC(c1nc2ccsc2c(=O)n1Cc1ccccc1)N(CCCN)C(=O)c1ccc2ccccc2c1 (stereo not drawn) | 30 nM | 200 nM | –
5 | CCC(c1nc2ccsc2c(=O)n1Cc1ccccc1)N(CCCN)C(=O)c1ccccc1C (stereo not drawn) | 1060 nM | – | –
6 | CCCCC(=O)N(CCCN)C(CC)c1nc2ccsc2c(=O)n1Cc1ccccc1 (stereo not drawn) | 5520 nM | – | –
7 | Cc1nsc2nc(C(C(C)C)N(CCCN)C(=O)c3ccc(Br)cc3)n(Cc3ccccc3)c(=O)c12 (stereo not drawn) | – | 6 nM | –
8 | CCC(c1nc2sc(Cl)cc2c(=O)n1Cc1ccccc1)N(CCCN)C(=O)c1ccc(C)cc1 (stereo not drawn) | 85 nM | 464 nM | –
9 | CCC(c1nc2nccnc2c(=O)n1Cc1ccccc1)N(CCCN)C(=O)c1ccc(C)cc1 (stereo not drawn) | 5460 nM | – | –
10 | Cc1ccc(C(=O)N(CCCN)C(c2nc3snc(C)c3c(=O)n2Cc2ccc(F)cc2)C(C)C)cc1 (stereo not drawn) | – | 19 nM | –
11 | CCC(NC(=O)c1ccc(C)cc1)c1nc2ccsc2c(=O)n1Cc1ccccc1 (stereo not drawn) | 9000 nM | – | –
12 | CCC(c1nc2ccsc2c(=O)n1Cc1ccccc1)N(CCCN)C(=O)CC(C)C (stereo not drawn) | 4540 nM | – | –
13 | CCC(c1nc2ccsc2c(=O)n1Cc1ccccc1)N(CCCN)C(=O)C1CCC(OC)CC1 (stereo not drawn) | 9000 nM | – | –
14 | CCC(c1nc2ccsc2c(=O)n1Cc1ccccc1)N(CCCN)C(=O)c1ccccc1Cl (stereo not drawn) | 610 nM | 860 nM | –
15 | CCC(c1nc2ccsc2c(=O)n1Cc1ccccc1)N(CCCN)C(=O)c1ccco1 (stereo not drawn) | 500 nM | 1550 nM | –
16 | CCC(c1nc2ccsc2c(=O)[nH]1)N(CCCN)C(=O)c1ccc(C)cc1 (stereo not drawn) | 9000 nM | – | –
17 | CCC(c1nc2ccsc2c(=O)n1Cc1ccccc1)N(CCCN)C(=O)c1ccc(Cl)cc1Cl (stereo not drawn) | 150 nM | 310 nM | –
18 | Cc1ccc(C(=O)N(CCCN)C(c2nc3snc(C)c3c(=O)n2Cc2cccc(F)c2)C(C)C)cc1 (single isomer, unassigned; (+)) | – | 5 nM | –
19 | CCC(c1nc2ccsc2c(=O)n1Cc1ccccc1)N(CCCN)C(=O)c1cc2ccccc2s1 (stereo not drawn) | 40 nM | – | –
20 | CCC(c1nc2ccsc2c(=O)n1CC1CC1)N(CCCN)C(=O)c1ccc(C)cc1 (stereo not drawn) | 760 nM | 3080 nM | –
21 | CCC(c1nc2ncccc2c(=O)n1Cc1ccccc1)N(CCCN)C(=O)c1ccc(C)cc1 (stereo not drawn) | 323 nM | 1400 nM | –

Row | Compound | IC50 [1] | IC50 ([2]; Homo sapiens, COLO 205, 72 h) | IC50 ([2]; colo 205)
22 | CCC(c1nc2snc(C)c2c(=O)n1Cc1ccccc1)N(CCCN)C(=O)c1ccc(C)cc1 (single isomer, unassigned; (-)) | 51 nM | – | –
23 | CCC(c1nc2ccsc2c(=O)n1Cc1ccccc1)N(CCCN)C(=O)c1ccc2c(c1)OCO2 (stereo not drawn) | 150 nM | 260 nM | –
24 | CCC(c1nc2ccsc2c(=O)n1Cc1cscn1)N(CCCN)C(=O)c1ccc(C)cc1 (stereo not drawn) | 9090 nM | – | –
25 | CCC(c1nc2snc(C)c2c(=O)n1Cc1ccc(F)cc1)N(CCCN)C(=O)c1ccc(C)cc1 (stereo not drawn) | – | 105 nM | –
26 | CCC(c1nc2ccsc2c(=O)n1Cc1ccccc1)N(CCCNC(=O)OC(C)(C)C)C(=O)c1ccc(C)cc1 (stereo not drawn) | 10000 nM | – | –
27 | Cc1ccc(C(=O)N(CCCN)C(c2nc3snc(C)c3c(=O)n2Cc2ccccc2)C(C)C)cc1 (single isomer, unassigned; (-)) [AZD-4877] | 429 nM | – | –
28 | CCC(c1nc2ccsc2c(=O)n1Cc1ccccc1)N(CC1CNCCO1)C(=O)c1ccc(C)cc1 (stereo not drawn) | 310 nM | 720 nM | –
29 | CCC(c1nc2ccsc2c(=O)n1Cc1ccccc1)N(CCCN)C(=O)C1CCCC1 (stereo not drawn) | 4220 nM | – | –
30 | CCC(c1nc2ccsc2c(=O)n1Cc1ccccc1)N(CCCN)C(=O)c1cccc(C(F)(F)F)c1 (stereo not drawn) | 310 nM | 580 nM | –
31 | CCC(c1nc2ccsc2c(=O)n1Cc1ccccc1)N(C(=O)c1ccc(C)cc1)C1CCNCC1 (stereo not drawn) | 1070 nM | 1290 nM | –
32 | CCC(c1nc2c(C)nsc2c(=O)n1Cc1ccccc1)N(CCCN)C(=O)c1ccc(C)cc1 (stereo not drawn) | 5 nM | 45 nM | –
33 | CCC(c1nc2ccsc2c(=O)n1Cc1ccccc1)N(CC1CCNCC1)C(=O)c1ccc(C)cc1 (stereo not drawn) | 1440 nM | 10000 nM | –
34 | CCC(c1nc2ccsc2c(=O)n1Cc1ccccc1)N(CCCN)C(=O)c1sccc1C (stereo not drawn) | 410 nM | – | –
35 | CCC(c1nc2snc(C)c2c(=O)n1Cc1cccc(F)c1)N(CCCN)C(=O)c1ccc(C)cc1 (single isomer, unassigned; (+)) | – | 13 nM | –
36 | CCC(c1nc2snc(C)c2c(=O)n1Cc1ccccc1)N(CCCN)C(=O)c1ccc(Br)cc1 (stereo not drawn) | – | 14 nM | –
37 | Cc1ccc(C(=O)N(CCCN)C(c2nc3snc(C)c3c(=O)n2Cc2ccccc2)C(C)C)cc1F (single isomer, unassigned; (+)) | – | 10 nM | –
38 | CCC(c1nc2ccsc2c(=O)n1Cc1ccccc1)N(CCCN)C(=O)c1ccc2nccnc2c1 (stereo not drawn) | 3210 nM | – | –
39 | CCC(c1nc2sc(Br)cc2c(=O)n1Cc1ccccc1)N(CCCN)C(=O)c1ccc(C)cc1 (stereo not drawn) | 141 nM | 763 nM | –
40 | CCC(c1nc2ccsc2c(=O)n1Cc1ccccc1)N(CCCN)C(=O)C1CC1 (stereo not drawn) | 6700 nM | – | –
41 | Cc1ccc(C(=O)N(CCCN)C(c2nc3snc(C)c3c(=O)n2Cc2ccccc2)C(C)C)cc1 (stereo in doubt; 65) [AZD-4877] | – | 2 nM | –

Continued, values first:

Row | IC50 [1] | IC50 ([2]; Homo sapiens, COLO 205, 72 h) | IC50 ([2]; colo 205) | Compound
42 | 20 nM | 60 nM | – | CCC(c1nc2ccsc2c(=O)n1Cc1ccccc1)N(CCCN)C(=O)c1ccc(C)c(F)c1 (stereo not drawn)
43 | 3500 nM | – | – | CCC(c1nc2ccsc2c(=O)n1Cc1ccccn1)N(CCCN)C(=O)c1ccc(C)cc1 (stereo not drawn)
44 | 140 nM | 1360 nM | – | CCC(c1nc2ccsc2c(=O)n1Cc1ccccc1F)N(CCCN)C(=O)c1ccc(C)cc1 (stereo not drawn)
45 | 940 nM | 3300 nM | – | CCC(c1nc2ccsc2c(=O)n1Cc1ccccc1)N(CCCN)C(=O)c1ccc(C(C)C)cc1 (stereo not drawn)
46 | 1900 nM | – | – | CCC(c1nc2sccc2c(=O)n1Cc1ccccc1)N(CCCN)C(=O)c1ccc(C)cc1 (single isomer, unassigned; (-))
47 | 5990 nM | – | – | CCC(c1nc2ccsc2c(=O)n1Cc1ccccc1)N(CCCNS(C)(=O)=O)C(=O)c1ccc(C)cc1 (stereo not drawn)
48 | 13 nM | 174 nM | – | CCC(c1nc2ccoc2c(=O)n1Cc1ccccc1)N(CCCN)C(=O)c1ccc(C)cc1 (stereo not drawn)
49 | 30 nM | 160 nM | – | CCC(c1nc2ccsc2c(=O)n1Cc1ccccc1)N(CCCN)C(=O)c1ccc(Br)cc1 (stereo not drawn)
50 | 21 nM | 43 nM | – | CCC(c1nc2ccn(C)c2c(=O)n1Cc1ccccc1)N(CCCN)C(=O)c1ccc(C)cc1 (stereo not drawn)
51 | 5310 nM | – | – | CCC(c1nc2ccsc2c(=O)n1Cc1ccncc1)N(CCCN)C(=O)c1ccc(C)cc1 (stereo not drawn)
52 | 50 nM | 200 nM | – | CCC(c1nc2ccsc2c(=O)n1Cc1ccccc1)N(CCCN)C(=O)c1ccc(Cl)cc1 (stereo not drawn)
53 | 90 nM | 250 nM | – | CCc1ccc(C(=O)N(CCCN)C(CC)c2nc3ccsc3c(=O)n2Cc2ccccc2)cc1 (stereo not drawn)
54 | 2920 nM | – | – | CCC(c1nc2ccsc2c(=O)n1Cc1ccccc1)N(CCCNC(C)=O)C(=O)c1ccc(C)cc1 (stereo not drawn)
55 | 210 nM | 1560 nM | – | CCC(c1nc2ccsc2c(=O)n1Cc1ccc(Cl)cc1)N(CCCN)C(=O)c1ccc(C)cc1 (stereo not drawn)
56 | 10 nM | 100 nM | – | CCC(c1nc2ccsc2c(=O)n1Cc1ccccc1)N(CCCN)C(=O)c1ccc(C)cc1 (stereo not drawn)
57 | 210 nM | 510 nM | – | CCC(c1nc2ccsc2c(=O)n1Cc1ccccc1)N(CCCN)C(=O)c1ccc(C(F)(F)F)cc1 (stereo not drawn)
58 | 2700 nM | – | – | CCC(c1nc2ccsc2c(=O)n1Cc1ccccc1)N(CCCN)C(=O)c1ccc(C#N)cc1 (stereo not drawn)
59 | 2460 nM | – | – | CCC(c1nc2ccsc2c(=O)n1Cc1ccccc1)N(CCCN)C(=O)c1ccc(OC(F)(F)F)cc1 (stereo not drawn)
60 | 980 nM | 3690 nM | – | CCC(c1nc2ccsc2c(=O)n1Cc1ccccc1)N(CCCN)C(=O)c1ccc(C)nc1 (stereo not drawn)
61 | 200 nM | 680 nM | – | CCC(c1nc2ccsc2c(=O)n1Cc1ccccc1)N(CCCN)C(=O)c1ccccc1 (stereo not drawn)
62 | 20 nM | 330 nM | – | CCC(c1nc2ccsc2c(=O)n1Cc1cccc(F)c1)N(CCCN)C(=O)c1ccc(C)cc1 (stereo not drawn)
63 | 3 nM | – | 8 nM | CCC(c1nc2sccc2c(=O)n1Cc1ccccc1)N(CCCN)C(=O)c1ccc(C)cc1 (single isomer, unassigned; (+))
64 | 140 nM | 570 nM | – | CCC(c1nc2ccsc2c(=O)n1Cc1ccccc1)N(CCCN)C(=O)c1ccc(F)cc1 (stereo not drawn)
65 | 130 nM | 650 nM | – | CCC(c1nc2ccsc2c(=O)n1Cc1ccc(C)cc1)N(CCCN)C(=O)c1ccc(C)cc1 (stereo not drawn)
66 | 5960 nM | – | – | CCC(c1nc2ccsc2c(=O)n1Cc1ccccc1)N(CCCN)C(=O)c1ccc(C(=O)OC)cc1 (stereo not drawn)
67 | 3800 nM | – | – | CCC(c1nc2ccsc2c(=O)n1Cc1cccnc1)N(CCCN)C(=O)c1ccc(C)cc1 (stereo not drawn)

Source: ChEMBL document CHEMBL1828558, “Discovery of (+)-N-(3-aminopropyl)-N-[1-(5-benzyl-3-methyl-4-oxo-[1,2]thiazolo[5,4-d]pyrimidin-6-yl)-2-methylpropyl]-4-methylbenzamide (AZD4877), a kinesin spindle protein inhibitor and potential anticancer agent” (J Med Chem, 2011)
